Source: ChEMBL document CHEMBL1201862, “PubChem BioAssay data set” (2004)
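Results reflect a 48-hour exposure of cells in 96-well plates to compound at five concentrations. GI50 is the concentration that inhibits growth by half.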 Calls of active or inactive are those of the source. Cut-off read from the data, not from the text of the source: active = GI50 up to about 1.1 µM and inactive = higher.

Assays:
Test in all cases: NCI anticancer screen, dose series, 48 h
CAKI-1 = test system: CAKI-1
COLO 205 = test system: COLO 205
OVCAR-5 = test system: OVCAR-5
SK-OV-3 = test system: SK-OV-3
SF-295 = test system: SF-295
HL-60 = test system: HL-60
SW-620 = test system: SW-620
OVCAR-4 = test system: OVCAR-4
CCRF-CEM = test system: CCRF-CEM
NCI-H522 = test system: NCI-H522
DMS-273 = test system: DMS-273
IGROV-1 = test system: IGROV-1
ACHN = test system: ACHN
A549 = test system: A549
SK-MEL-2 = test system: SK-MEL-2
LXFL 529 = test system: LXFL 529
NCI-H460 = test system: NCI-H460
NCI-H23 = test system: NCI-H23
SF-539 = test system: SF-539
TK-10 = test system: TK-10
HCT-15 = test system: HCT-15
UACC-62 = test system: UACC-62
M19-MEL = test system: M19-MEL
M14 = test system: M14
K562 = test system: K562
HCT-116 = test system: HCT-116
KM12 = test system: KM12
DLD-1 = test system: DLD-1
OVCAR-8 = test system: OVCAR-8
KM-20L2 = test system: KM-20L2
SNB-19 = test system: SNB-19
Malme-3M = test system: Malme-3M
SK-MEL-28 = test system: SK-MEL-28
SR = test system: SR
A498 = test system: A498
UACC-257 = test system: UACC-257
HOP-18 = test system: HOP-18
SF-268 = test system: SF-268
SNB-75 = test system: SNB-75
HOP-62 = test system: HOP-62
UO-31 = test system: UO-31
HT-29 = test system: HT-29
786-0 = test system: 786-0
SN12C = test system: SN12C
EKVX = test system: EKVX
MOLT-4 = test system: MOLT-4
U-251 = test system: U-251
OVCAR-3 = test system: OVCAR-3
RPMI-8226 = test system: RPMI-8226
HOP-92 = test system: HOP-92
SK-MEL-5 = test system: SK-MEL-5
NCI-H226 = test system: NCI-H226
RXF 631 = test system: RXF 631
HCC 2998 = test system: HCC 2998
SNB-78 = test system: SNB-78
XF498 = test system: XF498
RXF 393 = test system: RXF 393
DMS-114 = test system: DMS-114
LOX IMVI = test system: LOX IMVI

SMILES: O=C1C(=O)N(c2ccc(Cl)cc2Cl)C(=O)C(=O)C1c1nc2ccccc2o1
- GI50 (CAKI-1): > 100 µM (inactive)
- GI50 (COLO 205): > 100 µM (inactive)
- GI50 (OVCAR-5): > 100 µM (inactive)
- GI50 (SK-OV-3): > 100 µM (inactive)
- GI50 (SF-295): > 100 µM (inactive)
- GI50 (HL-60): > 100 µM (inactive)
- GI50 (SW-620): > 100 µM (inactive)
- GI50 (OVCAR-4): > 100 µM (inactive)
- GI50 (CCRF-CEM): 93.8 µM (inactive)
- GI50 (NCI-H522): > 100 µM (inactive)
- GI50 (DMS-273): > 100 µM (inactive)
- GI50 (IGROV-1): > 100 µM (inactive)
- GI50 (ACHN): > 100 µM (inactive)
- GI50 (A549): > 100 µM (inactive)
- GI50 (SK-MEL-2): > 100 µM (inactive)
- GI50 (LXFL 529): > 100 µM (inactive)
- GI50 (NCI-H460): > 100 µM (inactive)
- GI50 (NCI-H23): > 100 µM (inactive)
- GI50 (SF-539): > 100 µM (inactive)
- GI50 (TK-10): > 100 µM (inactive)
- GI50 (HCT-15): > 100 µM
- GI50 (UACC-62): > 100 µM (inactive)
- GI50 (M19-MEL): > 100 µM (inactive)
- GI50 (M14): > 100 µM (inactive)
- GI50 (K562): > 100 µM (inactive)
- GI50 (HCT-116): > 100 µM (inactive)
- GI50 (KM12): > 100 µM (inactive)
- GI50 (DLD-1): > 100 µM (inactive)
- GI50 (OVCAR-8): > 100 µM (inactive)
- GI50 (KM-20L2): > 100 µM (inactive)
- GI50 (SNB-19): > 100 µM (inactive)
- GI50 (Malme-3M): > 100 µM (inactive)
- GI50 (SK-MEL-28): > 100 µM (inactive)
- GI50 (SR): > 100 µM (inactive)
- GI50 (A498): > 100 µM (inactive)
- GI50 (UACC-257): > 100 µM (inactive)
- GI50 (HOP-18): > 100 µM (inactive)
- GI50 (SF-268): > 100 µM (inactive)
- GI50 (SNB-75): > 100 µM (inactive)
- GI50 (HOP-62): > 100 µM (inactive)
- GI50 (UO-31): > 100 µM (inactive)
- GI50 (HT-29): > 100 µM (inactive)
- GI50 (786-0): > 100 µM (inactive)
- GI50 (SN12C): > 100 µM (inactive)
- GI50 (EKVX): > 100 µM (inactive)
- GI50 (MOLT-4): > 100 µM (inactive)
- GI50 (U-251): > 100 µM (inactive)
- GI50 (OVCAR-3): > 100 µM (inactive)
- GI50 (RPMI-8226): > 100 µM (inactive)
- GI50 (HOP-92): > 100 µM (inactive)
- GI50 (SK-MEL-5): > 100 µM (inactive)
- GI50 (NCI-H226): > 100 µM (inactive)
- GI50 (RXF 631): > 100 µM (inactive)
- GI50 (HCC 2998): > 100 µM (inactive)
- GI50 (SNB-78): > 100 µM (inactive)
- GI50 (XF498): > 100 µM (inactive)

SMILES: Cc1ccc(NC(=O)CC/C(CC(=O)C(C)(C)C)=N/Nc2nnc(C)n2N)cc1C
- GI50 (CAKI-1): > 100 µM (inactive)
- GI50 (COLO 205): > 100 µM (inactive)
- GI50 (OVCAR-5): > 100 µM (inactive)
- GI50 (SK-OV-3): > 100 µM (inactive)
- GI50 (SF-295): > 100 µM (inactive)
- GI50 (HL-60): > 100 µM (inactive)
- GI50 (SW-620): > 100 µM (inactive)
- GI50 (CCRF-CEM): 65 µM (inactive)
- GI50 (NCI-H522): > 100 µM (inactive)
- GI50 (DMS-273): 95.1 µM (inactive)
- GI50 (IGROV-1): > 100 µM (inactive)
- GI50 (ACHN): > 100 µM (inactive)
- GI50 (RXF 393): > 100 µM (inactive)
- GI50 (A549): > 100 µM (inactive)
- GI50 (SK-MEL-2): > 100 µM (inactive)
- GI50 (LXFL 529): > 100 µM (inactive)
- GI50 (NCI-H460): > 100 µM (inactive)
- GI50 (NCI-H23): > 100 µM (inactive)
- GI50 (SF-539): > 100 µM (inactive)
- GI50 (TK-10): > 100 µM (inactive)
- GI50 (HCT-15): > 100 µM
- GI50 (UACC-62): > 100 µM (inactive)
- GI50 (M19-MEL): > 100 µM (inactive)
- GI50 (M14): > 100 µM (inactive)
- GI50 (K562): 43 µM (inactive)
- GI50 (HCT-116): > 100 µM (inactive)
- GI50 (KM12): 84.9 µM (inactive)
- GI50 (OVCAR-8): > 100 µM (inactive)
- GI50 (KM-20L2): > 100 µM (inactive)
- GI50 (SNB-19): > 100 µM (inactive)
- GI50 (Malme-3M): > 100 µM (inactive)
- GI50 (SK-MEL-28): > 100 µM (inactive)
- GI50 (SR): 94.8 µM (inactive)
- GI50 (A498): > 100 µM (inactive)
- GI50 (DMS-114): 62.2 µM (inactive)
- GI50 (UACC-257): > 100 µM (inactive)
- GI50 (HOP-18): > 100 µM (inactive)
- GI50 (SF-268): > 100 µM (inactive)
- GI50 (SNB-75): > 100 µM (inactive)
- GI50 (HOP-62): > 100 µM (inactive)
- GI50 (UO-31): > 100 µM (inactive)
- GI50 (HT-29): > 100 µM (inactive)
- GI50 (786-0): > 100 µM (inactive)
- GI50 (SN12C): > 100 µM (inactive)
- GI50 (EKVX): 30.8 µM (inactive)
- GI50 (MOLT-4): 66.5 µM (inactive)
- GI50 (U-251): > 100 µM (inactive)
- GI50 (OVCAR-3): > 100 µM (inactive)
- GI50 (RPMI-8226): > 100 µM (inactive)
- GI50 (LOX IMVI): > 100 µM (inactive)
- GI50 (HOP-92): > 100 µM (inactive)
- GI50 (SK-MEL-5): > 100 µM (inactive)
- GI50 (NCI-H226): > 100 µM (inactive)
- GI50 (RXF 631): > 100 µM (inactive)
- GI50 (HCC 2998): > 100 µM (inactive)
- GI50 (SNB-78): > 100 µM (inactive)
- GI50 (XF498): > 100 µM (inactive)

SMILES: CCCCCCCCCCCCCC/C(C(=O)OC)=C(/O)C(=O)OCC
- GI50 (CAKI-1): 31.4 µM (inactive)
- GI50 (COLO 205): 90.8 µM (inactive)
- GI50 (OVCAR-5): 27 µM (inactive)
- GI50 (SK-OV-3): 35.3 µM (inactive)
- GI50 (SF-295): 20.6 µM (inactive)
- GI50 (HL-60): > 100 µM (inactive)
- GI50 (SW-620): > 100 µM (inactive)
- GI50 (OVCAR-4): 58.9 µM (inactive)
- GI50 (CCRF-CEM): 42.5 µM (inactive)
- GI50 (NCI-H522): 43.3 µM (inactive)
- GI50 (DMS-273): 94 µM (inactive)
- GI50 (IGROV-1): 30 µM (inactive)
- GI50 (ACHN): 28.9 µM (inactive)
- GI50 (RXF 393): 99.5 µM (inactive)
- GI50 (A549): 26.4 µM (inactive)
- GI50 (SK-MEL-2): 16.6 µM (inactive)
- GI50 (LXFL 529): 39.3 µM (inactive)
- GI50 (NCI-H460): 37.8 µM (inactive)
- GI50 (NCI-H23): > 100 µM (inactive)
- GI50 (SF-539): > 100 µM (inactive)
- GI50 (TK-10): 47.3 µM (inactive)
- GI50 (HCT-15): 19.7 µM
- GI50 (UACC-62): 16.9 µM (inactive)
- GI50 (M19-MEL): 54.8 µM (inactive)
- GI50 (M14): 20.2 µM (inactive)
- GI50 (K562): 27 µM (inactive)
- GI50 (HCT-116): 47.6 µM (inactive)
- GI50 (KM12): 19.9 µM (inactive)
- GI50 (DLD-1): 30.5 µM (inactive)
- GI50 (OVCAR-8): 44.8 µM (inactive)
- GI50 (SNB-19): 40.9 µM (inactive)
- GI50 (Malme-3M): > 100 µM (inactive)
- GI50 (SK-MEL-28): 24 µM (inactive)
- GI50 (A498): 33.2 µM (inactive)
- GI50 (DMS-114): > 100 µM (inactive)
- GI50 (UACC-257): 63.5 µM (inactive)
- GI50 (HOP-18): 27.6 µM (inactive)
- GI50 (SF-268): 25.8 µM (inactive)
- GI50 (SNB-75): 33 µM (inactive)
- GI50 (HOP-62): 61.2 µM (inactive)
- GI50 (UO-31): 23.6 µM (inactive)
- GI50 (HT-29): 36.4 µM (inactive)
- GI50 (786-0): 19.7 µM (inactive)
- GI50 (SN12C): > 100 µM (inactive)
- GI50 (EKVX): 37.2 µM (inactive)
- GI50 (MOLT-4): 37.6 µM (inactive)
- GI50 (U-251): 26.3 µM (inactive)
- GI50 (OVCAR-3): > 100 µM (inactive)
- GI50 (RPMI-8226): > 100 µM (inactive)
- GI50 (LOX IMVI): 17.8 µM (inactive)
- GI50 (HOP-92): 25.5 µM (inactive)
- GI50 (SK-MEL-5): > 100 µM (inactive)
- GI50 (NCI-H226): > 100 µM (inactive)
- GI50 (RXF 631): 33 µM (inactive)
- GI50 (HCC 2998): 19.9 µM (inactive)
- GI50 (SNB-78): 64.1 µM (inactive)
- GI50 (XF498): 20.4 µM (inactive)
